Measurements reported in PubChem BioAssay AID1963837 (Molecular Pharmacology Branch, DTP, NCI, 2024).
pIC50: −log10 of the molar value.

Tested on: 843126-344-R-J1-PDC complex spheroid viability
Assay: Anticancer human tumor 843126-344-R-J1-PDC patient-derived melanoma cell line growth inhibition [POLQ]
Settings: for pIC50: curve of first compound; for viability, T/C: stronger effect = lower value
Outline: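 Growth inhibition in 3D: complex spheroids (tumor PDC, HUVEC, MSC) treated with POLQ inhibitor combinations; where Cmax unknown, highest tested concentration 10 microM, except SN-38 at 1 microM.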

[1] = second compound 0.0316 µM, first compound 0.00316 µM
[2] = second compound 0.0316 µM, first compound 0.01 µM
[3] = second compound 0.0316 µM, first compound 0.0316 µM
[4] = second compound 0.0316 µM, first compound 0.1 µM
[5] = second compound 0.0316 µM, first compound 0.316 µM
[6] = second compound 0.0316 µM, first compound 1 µM
[7] = second compound 0.1 µM, first compound 0.00316 µM
[8] = second compound 0.1 µM, first compound 0.01 µM
[9] = second compound 0.1 µM, first compound 0.0316 µM
[10] = second compound 0.1 µM, first compound 0.1 µM
[11] = second compound 0.1 µM, first compound 0.316 µM
[12] = second compound 0.1 µM, first compound 1 µM
[13] = second compound 0.316 µM, first compound 0.00316 µM
[14] = second compound 0.316 µM, first compound 0.01 µM
[15] = second compound 0.316 µM, first compound 0.0316 µM
[16] = second compound 0.316 µM, first compound 0.1 µM
[17] = second compound 0.316 µM, first compound 0.316 µM
[18] = second compound 0.316 µM, first compound 1 µM
[19] = second compound 1 µM, first compound 0.00316 µM
[20] = second compound 1 µM, first compound 0.01 µM
[21] = second compound 1 µM, first compound 0.0316 µM
[22] = second compound 1 µM, first compound 0.1 µM
[23] = second compound 1 µM, first compound 0.316 µM
[24] = second compound 1 µM, first compound 1 µM
[25] = second compound 3.16 µM, first compound 0.00316 µM
[26] = second compound 3.16 µM, first compound 0.01 µM
[27] = second compound 3.16 µM, first compound 0.0316 µM
[28] = second compound 3.16 µM, first compound 0.1 µM
[29] = second compound 3.16 µM, first compound 0.316 µM
[30] = second compound 3.16 µM, first compound 1 µM
[31] = second compound 10 µM, first compound 0.00316 µM
[32] = second compound 10 µM, first compound 0.01 µM
[33] = second compound 10 µM, first compound 0.0316 µM
[34] = second compound 10 µM, first compound 0.1 µM
[35] = second compound 10 µM, first compound 0.316 µM
[36] = second compound 10 µM, first compound 1 µM
[37] = second compound 0.0316 µM, first compound 3.16 µM
[38] = second compound 0.0316 µM, first compound 10 µM
[39] = second compound 0.1 µM, first compound 3.16 µM
[40] = second compound 0.1 µM, first compound 10 µM
[41] = second compound 0.316 µM, first compound 3.16 µM
[42] = second compound 0.316 µM, first compound 10 µM
[43] = second compound 1 µM, first compound 3.16 µM
[44] = second compound 1 µM, first compound 10 µM
[45] = second compound 3.16 µM, first compound 3.16 µM
[46] = second compound 3.16 µM, first compound 10 µM
[47] = second compound 10 µM, first compound 3.16 µM
[48] = second compound 10 µM, first compound 10 µM
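For viability, T/C in this document: spheroids exposed to drugs for seven days before readout.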

## CCc1c2c(nc3ccc(O)cc13)-c1cc3c(c(=O)n1C2)COC(=O)[C@]3(O)CC + COC1C(OC(N)=O)C(O)C(Oc2ccc3c(O)c(NC(=O)c4ccc(O)c(CC=C(C)C)c4)c(=O)oc3c2C)OC1(C)C
Second compound 0.0316 µM
  pIC50: < 6.00
Second compound 0.1 µM
  pIC50: < 6.00
Second compound 0.316 µM
  pIC50: < 6.00
Second compound 1 µM
  pIC50: 6.37
Second compound 3.16 µM
  pIC50: 6.62
Second compound 10 µM
  pIC50: 6.31
[1]
  viability, T/C: 63.2%
[2]
  viability, T/C: 59.4%
[3]
  viability, T/C: 65.9%
[4]
  viability, T/C: 64.5%
[5]
  viability, T/C: 63.1%
[6]
  viability, T/C: 42.7%
[7]
  viability, T/C: 66.5%
[8]
  viability, T/C: 52.1%
[9]
  viability, T/C: 71.4%
[10]
  viability, T/C: 69.2%
[11]
  viability, T/C: 63.8%
[12]
  viability, T/C: 48.6%
[13]
  viability, T/C: 70.5%
[14]
  viability, T/C: 59.4%
[15]
  viability, T/C: 64.9%
[16]
  viability, T/C: 64.8%
[17]
  viability, T/C: 73%
[18]
  viability, T/C: 50.3%
[19]
  viability, T/C: 66.7%
[20]
  viability, T/C: 48.2%
[21]
  viability, T/C: 50.9%
[22]
  viability, T/C: 70.6%
[23]
  viability, T/C: 48.6%
[24]
  viability, T/C: 40.5%
[25]
  viability, T/C: 66.9%
[26]
  viability, T/C: 63.7%
[27]
  viability, T/C: 73.3%
[28]
  viability, T/C: 57.1%
[29]
  viability, T/C: 50.9%
[30]
  viability, T/C: 44.8%
[31]
  viability, T/C: 59.9%
[32]
  viability, T/C: 62.7%
[33]
  viability, T/C: 56.3%
[34]
  viability, T/C: 67.5%
[35]
  viability, T/C: 50%
[36]
  viability, T/C: 43%

## C#Cc1c(F)ccc2cc(O)cc(-c3ncc4c(N5CC6CCC(C5)N6)nc(OCC56CCCN5CC(F)C6)nc4c3F)c12 (stereo not drawn) + Nc1ccc(C#CCN(C(=O)Cc2ncc(C(F)(F)F)cc2C(F)(F)F)c2ccc(F)cc2)nn1
Second compound 0.0316 µM
  pIC50: < 5.00
Second compound 0.1 µM
  pIC50: < 5.00
Second compound 0.316 µM
  pIC50: < 5.00
Second compound 1 µM
  pIC50: < 5.00
Second compound 3.16 µM
  pIC50: < 5.00
Second compound 10 µM
  pIC50: < 5.00
[3]
  viability, T/C: 87.4%
[4]
  viability, T/C: 95.1%
[5]
  viability, T/C: 99.8%
[6]
  viability, T/C: 88.7%
[37]
  viability, T/C: 121%
[38]
  viability, T/C: 76.5%
[9]
  viability, T/C: 106%
[10]
  viability, T/C: 110%
[11]
  viability, T/C: 96.7%
[12]
  viability, T/C: 108%
[39]
  viability, T/C: 103%
[40]
  viability, T/C: 84.5%
[15]
  viability, T/C: 100%
[16]
  viability, T/C: 91.4%
[17]
  viability, T/C: 84.5%
[18]
  viability, T/C: 110%
[41]
  viability, T/C: 95.1%
[42]
  viability, T/C: 90.8%
[21]
  viability, T/C: 107%
[22]
  viability, T/C: 91.2%
[23]
  viability, T/C: 91.2%
[24]
  viability, T/C: 117%
[43]
  viability, T/C: 109%
[44]
  viability, T/C: 88.8%
[27]
  viability, T/C: 89.1%
[28]
  viability, T/C: 84.2%
[29]
  viability, T/C: 108%
[30]
  viability, T/C: 94.5%
[45]
  viability, T/C: 97.6%
[46]
  viability, T/C: 82.6%
[33]
  viability, T/C: 95.3%
[34]
  viability, T/C: 83.4%
[35]
  viability, T/C: 86.5%
[36]
  viability, T/C: 83.6%
[47]
  viability, T/C: 85.8%
[48]
  viability, T/C: 79.4%

## CC1COCCN1c1cc(C2(O)CC3CCC(C2)O3)c2cnn(-c3ccn[nH]3)c2n1 (stereo not drawn) + COC1C(OC(N)=O)C(O)C(Oc2ccc3c(O)c(NC(=O)c4ccc(O)c(CC=C(C)C)c4)c(=O)oc3c2C)OC1(C)C
Second compound 0.0316 µM
  pIC50: 6.41
Second compound 0.1 µM
  pIC50: 6.31
Second compound 0.316 µM
  pIC50: 6.39
Second compound 1 µM
  pIC50: 6.41
Second compound 3.16 µM
  pIC50: 6.40
Second compound 10 µM
  pIC50: 6.31
[3]
  viability, T/C: 83.6%
[4]
  viability, T/C: 66.6%
[5]
  viability, T/C: 53.6%
[6]
  viability, T/C: 38.9%
[37]
  viability, T/C: 22.7%
[38]
  viability, T/C: 14.5%
[9]
  viability, T/C: 78.8%
[10]
  viability, T/C: 78.9%
[11]
  viability, T/C: 53.2%
[12]
  viability, T/C: 38.8%
[39]
  viability, T/C: 27.2%
[40]
  viability, T/C: 18.3%
[15]
  viability, T/C: 92.1%
[16]
  viability, T/C: 64.9%
[17]
  viability, T/C: 51.5%
[18]
  viability, T/C: 44.5%
[41]
  viability, T/C: 22.5%
[42]
  viability, T/C: 15.1%
[21]
  viability, T/C: 73.2%
[22]
  viability, T/C: 68.3%
[23]
  viability, T/C: 51.4%
[24]
  viability, T/C: 36.3%
[43]
  viability, T/C: 27.4%
[44]
  viability, T/C: 14.7%
[27]
  viability, T/C: 88.7%
[28]
  viability, T/C: 55.5%
[29]
  viability, T/C: 53.2%
[30]
  viability, T/C: 46.8%
[45]
  viability, T/C: 26.1%
[46]
  viability, T/C: 15.6%
[33]
  viability, T/C: 72.5%
[34]
  viability, T/C: 66.9%
[35]
  viability, T/C: 54.7%
[36]
  viability, T/C: 41.6%
[47]
  viability, T/C: 25.6%
[48]
  viability, T/C: 11.7%

## CC[C@@]1(O)C(=O)OCc2c1cc1n(c2=O)Cc2cc3c(CN(C)C)c(O)ccc3nc2-1 + Nc1ccc(C#CCN(C(=O)Cc2ncc(C(F)(F)F)cc2C(F)(F)F)c2ccc(F)cc2)nn1
Second compound 0.0316 µM
  pIC50: < 7.00
Second compound 0.1 µM
  pIC50: < 7.00
Second compound 0.316 µM
  pIC50: < 7.00
Second compound 1 µM
  pIC50: < 7.00
Second compound 3.16 µM
  pIC50: < 7.00
Second compound 10 µM
  pIC50: < 7.00
Second compound 0.0316 µM, first compound 0.000316 µM
  viability, T/C: 85%
Second compound 0.0316 µM, first compound 0.001 µM
  viability, T/C: 94%
[1]
  viability, T/C: 82.8%
[2]
  viability, T/C: 100%
[3]
  viability, T/C: 71.1%
[4]
  viability, T/C: 50.2%
Second compound 0.1 µM, first compound 0.000316 µM
  viability, T/C: 103%
Second compound 0.1 µM, first compound 0.001 µM
  viability, T/C: 85.8%
[7]
  viability, T/C: 91%
[8]
  viability, T/C: 87.7%
[9]
  viability, T/C: 67.2%
[10]
  viability, T/C: 55.8%
Second compound 0.316 µM, first compound 0.000316 µM
  viability, T/C: 96.4%
Second compound 0.316 µM, first compound 0.001 µM
  viability, T/C: 81.4%
[13]
  viability, T/C: 90.5%
[14]
  viability, T/C: 91.7%
[15]
  viability, T/C: 72%
[16]
  viability, T/C: 61.1%
Second compound 1 µM, first compound 0.000316 µM
  viability, T/C: 85.1%
Second compound 1 µM, first compound 0.001 µM
  viability, T/C: 93.3%
[19]
  viability, T/C: 102%
[20]
  viability, T/C: 93.9%
[21]
  viability, T/C: 63.8%
[22]
  viability, T/C: 49.2%
Second compound 3.16 µM, first compound 0.000316 µM
  viability, T/C: 93.6%
Second compound 3.16 µM, first compound 0.001 µM
  viability, T/C: 98.2%
[25]
  viability, T/C: 95.3%
[26]
  viability, T/C: 106%
[27]
  viability, T/C: 64.9%
[28]
  viability, T/C: 54.7%
Second compound 10 µM, first compound 0.000316 µM
  viability, T/C: 85.9%
Second compound 10 µM, first compound 0.001 µM
  viability, T/C: 87.3%
[31]
  viability, T/C: 87.8%
[32]
  viability, T/C: 92.9%
[33]
  viability, T/C: 69.2%
[34]
  viability, T/C: 50%
